In US20180312473A1, “PHENAZINE DERIVATIVES AS ANTIMICROBIAL AGENTS” (priority 2015, published 2018):
≈ marks a conversion by molar mass, not a printed value. Like-named read-outs stand apart in the source and are kept apart here. Marks after values point to notes of the source that are not given here.

Columns and labels:
[1] = test system: MRSA-2 (methicillin-resistant Staphylococcus aureus clinical isolate); assay: MIC assay (broth microdilution, CLSI); assay type: cell-based; details: Staphylococcus aureus, MRSA, read-out: MIC, MRSA-2
[2] = test system: MRSE (S. epidermidis ATCC 35984) planktonic cells and biofilms; assay: Calgary Biofilm Device (CBD) assay, MBC/MBEC; assay type: cell-based, Staphylococcus epidermidis; details: Staphylococcus epidermidis; Table 8; read-out: MRSE 35984 MBC
[3] = test system: S. aureus clinical isolate SA 147; assay: MIC assay (broth microdilution, CLSI); details: Staphylococcus aureus, read-out: MIC, SA 147
[4] = test system: Staphylococcus epidermidis (ATCC 35984), MRSE; assay: MIC assay (broth microdilution, CLSI); assay type: cell-based; details: for MIC: Staphylococcus epidermidis
human red blood cells = assay: Hemolysis assay with red blood cells; details: human, 1 h, 200 μM, pH 7.2
How it was run: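 Hemolysis expressed as percent of the Triton X signal with DMSO as zero, using OD405 of supernatant. Compounds from DMSO stocks were incubated with triple-washed human erythrocytes for 1 hour at 37° C. before centrifugation; three independent experiments.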

[5] = test system: Staphylococcus epidermidis (ATCC 12228); assay: MIC assay (broth microdilution, CLSI); assay type: cell-based; details: Staphylococcus epidermidis
MRSA BAA-1707 = assay: MIC assay (broth microdilution, CLSI); details: Staphylococcus aureus, read-out: MIC, MRSA BAA-1707
[6] = test system: S. aureus clinical isolate SA 138; assay: MIC assay (broth microdilution, CLSI); details: Staphylococcus aureus, read-out: MIC, SA 138
in vitro = assay type: cell-based; details: human
[7] = test system: S. aureus clinical isolate SA 156; assay: MIC assay (broth microdilution, CLSI); details: Staphylococcus aureus, read-out: MIC, SA 156
[8] = test system: S. aureus clinical isolate SA 129; assay: MIC assay (broth microdilution, CLSI); details: Staphylococcus aureus, read-out: MIC, SA 129
[9] = test system: MRSA-2 planktonic cells and biofilms; assay: Calgary Biofilm Device (CBD) assay, MBC/MBEC; assay type: cell-based, Staphylococcus aureus; details: Staphylococcus aureus, MRSA
[10] = test system: Enterococcus faecium (ATCC 700221), VRE; assay: MIC assay (broth microdilution, CLSI); assay type: cell-based
[11] = test system: MRSA-1 (methicillin-resistant Staphylococcus aureus clinical isolate); assay: MIC assay (broth microdilution, CLSI); assay type: cell-based; details: Staphylococcus aureus, MRSA, read-out: MIC, MRSA-1
MRSA BAA-44 = assay: MIC assay (broth microdilution, CLSI); details: Staphylococcus aureus, read-out: MIC, MRSA BAA-44
[12] = test system: VRE (E. faecium ATCC 700221) planktonic cells and biofilms; assay: Calgary Biofilm Device (CBD) assay, MBC/MBEC; assay type: cell-based, Enterococcus faecium; details: c lowest concentration tested; for MBC: Enterococcus
P. aeruginosa (PAO1) = assay: MIC assay (broth microdilution, CLSI); assay type: cell-based; details: Pseudomonas aeruginosa, PAO1; read-out: PAO1 MIC
K. pneumoniae 13883 = assay: MIC assay (broth microdilution, CLSI); assay type: cell-based, Klebsiella pneumoniae; details: Klebsiella pneumoniae, 13883; read-out: K. pneumoniae 13883 MIC
[13] = Aqueous solubility under MIC assay conditions; assay type: physicochemical; details: MIC assay media, 37 °C, aqueous buffer; read-out: [aq. soluble]
E. coli UAEC-1 = assay: MIC assay (broth microdilution, CLSI); assay type: cell-based; details: Escherichia coli, UAEC1; read-out: E. coli UAEC-1 MIC
MRSA-2 = assay: MIC assay with Tiron or metal(II) cation co-treatment; assay type: cell-based, Staphylococcus aureus; details: Staphylococcus aureus
[14] = test system: methicillin-resistant S. aureus (MRSA) strains; assay: MIC assay, values summarised over MRSA strains; assay type: cell-based, Staphylococcus aureus
[15] = test system: M. tuberculosis H37Ra (ATCC 25177); assay: Mycobacterium tuberculosis MIC assay; assay type: cell-based; details: Mycobacterium tuberculosis
How it was run: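 Culture diluted to OD600 0.01 and exposed to compounds in 0.5% final DMSO, each compound tested in three rows. Growth read as OD600 absorbance. Data from three independent experiments.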

A. baumannii 19606 = assay: MIC assay (broth microdilution, CLSI); assay type: cell-based, Acinetobacter baumannii; details: Acinetobacter baumannii, 19606; read-out: A. baumannii 19606 MIC
[16] = test system: methicillin-sensitive S. aureus strains; assay: MIC assay; assay type: cell-based; details: Staphylococcus aureus; read-out: MIC against methicillin-sensitive S. aureus strains
HeLa cells = assay: in vitro; assay type: cell-based; details: human, 24 h
[17] = Mouse toxicity evaluation; assay type: in vivo, C57BL/6 mice; details: once daily oral gavage in corn oil, 7 days; 202 22.1 mg/kg, 209 4.2 mg/kg
Description: Groups of five C57BL/6 mice (Charles River Laboratories International, Inc.; mice were eight weeks old) were treated once daily with HPs 202 (22.1 mg/kg) and 209 (4.2 mg/kg) for 7 days via oral gavage (0.25 mL of formulated corn oil for 25 gram mouse on average).

S. epidermidis 12228 = assay: MIC assay with Tiron or metal(II) cation co-treatment; assay type: cell-based, Staphylococcus epidermidis; details: Staphylococcus epidermidis
[18] = test system: MRSA BAA-1707 planktonic cells and biofilms; assay: Calgary Biofilm Device (CBD) assay, MBC/MBEC; details: Staphylococcus aureus, read-out: MRSA BAA-1707 MBC
E. faecium 700221 (VRE) = assay: MIC assay with Tiron or metal(II) cation co-treatment; assay type: cell-based, Enterococcus faecium
[19] = Table 7, a midpoint of 2-fold range, b lowest concentration tested
[20] = Table 2A, read-out: MIC, Staphylococcus epidermidis (ATCC 35984)
[21] = Table 7, read-out: MIC, MRSE 35984
[22] = ATCC12228, Table 2A, read-out: MIC, Staphylococcus epidermidis (ATCC 12228)
[23] = ATCC12228, Table 7, b lowest concentration tested, read-out: MIC, S. epidermidis 12228
[24] = Enterococcus faecium, Table 2A, read-out: MIC, Enterococcus faecium (ATCC 700221)
[25] = Table 7, b lowest concentration tested, read-out: MIC, VRE 700221
[26] = Table 8, read-out: VRE 700221 MBC
[27] = Table 7, read-out: MIC, M. tuberculosis H37Ra

Compound | MIC [1, 19] | MIC [4, 20] | MIC [4, 21] | % Hemolysis (200 μM) (human red blood cells) | % Hemolysis at 200 μM (human red blood cells) | MIC [5, 22] | MIC [5, 23] | MIC (MRSA BAA-1707) | MIC [6] | IC50 at 24 h (in vitro) | MIC [7] | MIC [8] | MIC [10, 24] | MIC [10, 25] | MIC ([11]; Table 11) | MIC (MRSA BAA-44) | MBC [12, 26] | MIC [15, 27] | also measured
Oc1c(I)cc(I)c2nccnc12 [Compound 26] | 3.13 µM (≈ 1.25 µg/mL) | 3.13 µM (≈ 1.25 µg/mL) | 3.13 µM (≈ 1.25 µg/mL) | ≤1% | ≤1% | 6.25 µM (≈ 2.49 µg/mL) | 6.25 µM (≈ 2.49 µg/mL) | 1.56 µM (≈ 0.621 µg/mL) | 6.25 µM (≈ 2.49 µg/mL) | > 100 µM | 3.13 µM (≈ 1.25 µg/mL) | 6.25 µM (≈ 2.49 µg/mL) | 12.5 µM (≈ 4.97 µg/mL) | 12.5 µM (≈ 4.97 µg/mL) | 1.56 µM (≈ 0.621 µg/mL) | 1.56 µM (≈ 0.621 µg/mL) |  |  | MBC [2]: 750 µM (≈ 298 µg/mL); MIC [3]: 6.25 µM (≈ 2.49 µg/mL); MBC ([9]; Table 4, read-out: MBC, MRSA-2): > 2000 µM; MBC ([9]; Table 8, a/b 2-/4-fold range in independent experiments, read-out: MRSA-2 MBC): > 2000 µM
Oc1ccc(Br)c2nc3cc(Cl)c(Cl)cc3nc12 [Compound 11] | 0.78 µM (≈ 0.268 µg/mL) | 1.56 µM (≈ 0.537 µg/mL) | 1.56 µM (≈ 0.537 µg/mL) | 2.7% | 2.7% |  |  | 0.3 µM (≈ 0.103 µg/mL) | 0.78 µM (≈ 0.268 µg/mL) | > 100 µM | 1.17 µM (≈ 0.402 µg/mL) | 0.78 µM (≈ 0.268 µg/mL) | 6.25 µM (≈ 2.15 µg/mL) | 6.25 µM (≈ 2.15 µg/mL) | 0.39 µM (≈ 0.134 µg/mL) | 1.17 µM (≈ 0.402 µg/mL) | 100 µM (≈ 34.4 µg/mL) | 3.13 µM | MIC ([1]; Table 2A): 0.78 µM (≈ 0.268 µg/mL); MIC ([5]; ATCC12228, read-out: MIC, S. epidermidis 12228): 3.13 µM (≈ 1.08 µg/mL); MIC ([5]; ATCC12228, read-out: MIC, Staphylococcus epidermidis (ATCC 12228)): 3.13 µM (≈ 1.08 µg/mL); MIC (P. aeruginosa (PAO1)): > 100 µM; MIC (K. pneumoniae 13883): > 100 µM; solubility at 16 h [13]: 200 µM (≈ 68.8 µg/mL); MIC (E. coli UAEC-1): > 100 µM; MIC (MRSA-2; MRSA-2, no additive (Table 9), read-out: MIC): 0.78 µM; growth inhibition activity against at least one MRSA strain [14]: sub-micromolar; MIC ([15]; read-out: MIC, M. tuberculosis): ~1 µg/mL; MIC (A. baumannii 19606): > 100 µM
COc1cccc(OC)c1C(=O)N[C@@H]1C(=O)N2[C@@H]1SC(C)(C)[C@@H]2C(=O)O [Methicillin, methicillin, reference compound] |  |  |  |  |  |  |  |  | 25 µM (≈ 9.51 µg/mL) |  | 50 µM (≈ 19 µg/mL) | 25 µM (≈ 9.51 µg/mL) |  |  |  |  |  |  | MIC [16]: 0.8 to 1.56 µM (≈ 0.304 to 0.593 µg/mL)
Oc1c(Br)cc(Br)c2nc3cc(Cl)c(Cl)cc3nc12 [Compound 16] |  | 0.2 to 0.39 µM (≈ 0.0846 to 0.165 µg/mL) | 0.3 to 0.59 µM (≈ 0.127 to 0.25 µg/mL) | ≤1% |  | 0.05 to 0.1 µM (≈ 0.0211 to 0.0423 µg/mL) | 0.08 µM (≈ 0.0338 µg/mL) | 25 µM (≈ 10.6 µg/mL) |  | > 100 µM |  |  | 0.39 µM (≈ 0.165 µg/mL) | 0.39 µM (≈ 0.165 µg/mL) |  | 50 µM (≈ 21.1 µg/mL) | 0.39 µM (≈ 0.165 µg/mL) | 6.25 µM | MBC ([12]; Table 5, read-out: VRE MBC): 0.39 µM (≈ 0.165 µg/mL); VRE MBEC ([12]; Table 5): 0.39/0.39 μM; MIC ([4]; Table 2B, read-out: MIC, Staphylococcus epidermidis (ATCC 35984)): 0.3 µM (≈ 0.127 µg/mL); MIC, MRSE 35984 ([4]; Table 7): 0.30^a μM; IC50 (HeLa cells): > 100 µM; adverse side effects (changes in weight, seizure, death) [17]: no adverse side effects; MIC (S. epidermidis 12228; S. epidermidis 12228, without Tiron, read-out: MIC): 0.1 µM; MIC (S. epidermidis 12228; S. epidermidis 12228, read-out: MIC with Tiron): 0.1 µM; MIC (MRSA-2; MRSA-2, without Tiron, read-out: MIC): 12.5 µM; MIC (MRSA-2; MRSA-2, b lowest concentration tested, read-out: MIC with Tiron): 0.1 µM; MIC ([10]; Enterococcus faecium, Table 2B, b lowest concentration tested, read-out: MIC, Enterococcus faecium (ATCC 700221)): 0.39 µM (≈ 0.165 µg/mL); MBC [18]: 6.25 µM (≈ 2.64 µg/mL); MIC ([11]; Table 2A): 12.5 µM (≈ 5.29 µg/mL); MIC ([11]; Table 2B, b lowest concentration tested): 12.5 µM (≈ 5.29 µg/mL); MIC ([15]; 168 h, M. tuberculosis H37Ra, 7 days, read-out: Mtb MIC): 6.25 µM; MIC (E. faecium 700221 (VRE); VRE 700221, without Tiron, read-out: MIC): 0.39 µM; MIC (E. faecium 700221 (VRE); VRE 700221, read-out: MIC with Tiron): 0.39 µM
